Measured values: patent US20030013660A1, “Dioxolane analogs for improved inter-cellular delivery” (Shire BioChem Inc., priority 2000, published 2003)
Values joined by “and” are separate entries in the source; they are usually repeats but may differ in a detail not shown here. Equal values may be shown once. One block for each compound: values may come before it.

Experiments:
[1] = system: H-460; experiment: MTT assay at 72 hr (24 hr drug exposure, wash, 48 hr); assay type: cell-based
Experimental: (§1) Exposition of 24hr to drug, washed, and incubated for another 48hr (total of 72hr assay)

[2] = system: MCF-7; experiment: as above; assay type: cell-based; settings: Homo sapiens
Experimental: as §1

[3] = system: SF-268; experiment: as above; assay type: cell-based
Experimental: as §1

[4] = system: CCRF-CEM; experiment: MTT or WST-1 assay at 72 hr (24 hr drug exposure, wash, 48 hr); assay type: cell-based
Experimental: as §1

[5] = system: CEM/dCK-; experiment: as above; assay type: cell-based; settings: for Resistance Factor*: single experiment
Experimental: as §1

[6] = system: H-460; experiment: 3H-TdR incorporation at 72 hr (24 hr drug exposure, wash, 48 hr); assay type: cell-based, Human; settings: Homo sapiens, NCI-H460, read-out: IC50 in μM (3H-TdR incorporation at 72 hr) H-460 24 h, H-460 Human Lung Carcinoma, 72 hr assay
Experimental: (§2) Exposition of 24 hr to drug, wash, incubated for another 48 hr (total of 72 hr assay)
(§3) (3H-Thymidine Incorporation Assay)

[7] = system: MCF-7; experiment: as above; assay type: cell-based, Human; settings: Homo sapiens, MCF7, read-out: IC50 in μM (3H-TdR incorporation at 72 hr) MCF-7 24 h, MCF-7 Human Breast Carcinoma, 72 hr assay
Experimental: as §2, §3

[8] = system: SF-268; experiment: as above; assay type: cell-based, Human; settings: Homo sapiens, SF-268, read-out: IC50 in μM (3H-TdR incorporation at 72 hr) SF-268 24 h, SF-268 Human Central Nervous System Tumor; 24 h drug exposure, 72 hr assay
Experimental: as §2, §3

[9] = system: CEM/dCK-; experiment: as above; assay type: cell-based; settings: Homo sapiens, CCRF-CEM, read-out: IC50 in μM (3H-TdR incorporation at 72 hr) CEM/dCK- 24 h, CCRF-CEM deoxycytidine kinase-deficient; 24 h drug exposure, 72 hr assay
Experimental: as §2, §3

[10] = system: H-460; experiment: 3H-TdR (3H-thymidine) incorporation assay at 72 hr; assay type: cell-based, Human; settings: Homo sapiens
[11] = system: MCF-7; experiment: 3H-TdR (3H-thymidine) incorporation assay at 72 hr; assay type: cell-based, Human; settings: Homo sapiens
[12] = system: SF-268; experiment: 3H-TdR (3H-thymidine) incorporation assay at 72 hr; assay type: cell-based, Human
[13] = system: CCRF-CEM; experiment: 3H-TdR (3H-thymidine) incorporation assay at 72 hr; assay type: cell-based
Experimental: (§4) Table of IC50 Values (μM) for Controls
as §2, §3

[14] = system: CEM/dCK-; experiment: 3H-TdR (3H-thymidine) incorporation assay at 72 hr; assay type: cell-based
Experimental: as §4, §2, §3

[15] = Homo sapiens, NCI-H460, read-out: IC50 H-460 24 h, MTT at 72 hr, 24 h exposure, single experiment
[16] = MCF7, read-out: IC50 MCF-7 24 h, MTT at 72 hr, 24 h exposure, single experiment
[17] = Homo sapiens, SF-268, read-out: IC50 SF-268 24 h, MTT at 72 hr, 24 h exposure, single experiment
[18] = Homo sapiens, CCRF-CEM, read-out: IC50 CCRF-CEM 24 h, MMT or WST-1 at 72 hr, 24 h exposure, single experiment
[19] = read-out: IC50 CEM/dCK- 24 h, MMT or WST-1 at 72 hr, 24 h exposure, single experiment

IC50 [2, 16]: 16 µM | IC50 [4, 18]: 0.88 µM
SMILES: CC(C)C(C(=O)OC[C@H]1OC[C@@H](n2ccc(N)nc2=O)O1)c1ccccc1 (mixture of isomers) [Compound 262, 3-METHYL-2-PHENYL- BUTYRIC ACID 4-(4- AMINO-2-OXO-2H- PYRIMIDIN-1-YL)- [1,3]DIOXOLAN-2- YLMETHYL ESTER]
IC50 [1, 15]: 0.9 µM | IC50 [3, 17]: > 100 µM | Resistance Factor* ([5]; CEM/dCK- versus CCRF-CEM): >114 | IC50 [5, 19]: > 100 µM

IC50 [2, 16]: 0.25 µM | IC50 [4, 18]: 0.024 µM
SMILES: CCCCC(C)(C)C(=O)OC[C@H]1OC[C@@H](n2ccc(N)nc2=O)O1.Cl (stereo in doubt) [Compound 107, 2,2-DIMETHYLHEXANOIC ACID 4-(4-AMINO-2-OXO- 2H-PYRIMIDIN-1-YL)-1,3- DIOXOLAN-2-YLMETHYL ESTER HYDROCHLORIDE]
IC50 [1, 15]: 0.27 µM | IC50 [3, 17]: 3.4 µM | Resistance Factor* ([5]; CEM/dCK- versus CCRF-CEM): 2.042 | IC50 [5, 19]: 49 µM

IC50 [2, 16]: 0.0094 µM | IC50 [4, 18]: 0.34 µM | IC50 [6]: 0.00088 µM | IC50 [7]: ≤ 0.0001 µM | IC50 [8]: 0.018 µM | IC50 [9]: 14 µM
SMILES: CCCCCCCC/C=C/CCCCCCCC(=O)Nc1ccn([C@@H]2CO[C@H](CO)O2)c(=O)n1 (stereo in doubt) [Compound 216, Octadec-9-enoic acid [1-(2-hydroxymethyl-[1,3]dioxolan-4-yl)-2-oxo-1,2-dihydro-pyrimidin-4-yl]-amide]
IC50 [1, 15]: 0.064 µM | IC50 [3, 17]: 0.4 µM | Resistance Factor* ([5]; CEM/dCK- versus CCRF-CEM): 91 | IC50 [5, 19]: 31 µM

IC50 ([2]; MCF7, read-out: IC50 MCF-7 24 h, Average, MTT at 72 hr, Average of the experiments): 2 ± 2.4 µM | IC50 ([4]; Homo sapiens, CCRF-CEM, read-out: IC50 CCRF-CEM 24 h, Average, MMT or WST-1 at 72 hr, Average of the experiments): 0.38 ± 0.28 µM | IC50 ([4]; read-out: IC50 CCRF-CEM 24 h, MMT or WST-1 at 72 hr, 24 h exposure, single experiment): 0.21 µM and 0.14 µM | IC50 ([10]; NCI-H460, 24 h, read-out: IC50 H-460 24 h, Average, Average ± spread of the repeat determinations, 24 h exposure): 0.12 µM | IC50 ([10]; NCI-H460, read-out: IC50 H-460 (72 h), 72 h exposure, 3H-TdR incorporation at 72 hr): 0.04 µM | IC50 ([11]; MCF7, 24 h, read-out: IC50 MCF-7 24 h, Average, Average ± spread of the repeat determinations, 24 h exposure): 0.18 µM | IC50 ([11]; MCF7, read-out: IC50 MCF-7 (72 h), 72 h exposure, 3H-TdR incorporation at 72 hr): 0.066 µM | IC50 ([12]; Homo sapiens, SF-268, 24 h, read-out: IC50 SF-268 24 h, Average, Average ± spread of the repeat determinations, 24 h exposure): 0.44 µM | IC50 ([12]; Homo sapiens, SF-268, read-out: IC50 SF-268 (72 h), 72 h exposure, 3H-TdR incorporation at 72 hr): 0.096 µM | IC50 ([12]; read-out: IC50 SF-268 24 h, 24 h drug exposure, wash, another 48 hr, 3H-TdR incorporation at 72 hr): 0.33 µM and 0.66 µM | IC50 ([13]; Homo sapiens, CCRF-CEM, 24 h, read-out: IC50 CCRF-CEM 24 h, Average, Average ± spread of the repeat determinations, 24 h exposure): 0.078 µM | IC50 ([13]; read-out: IC50 CCRF-CEM 24 h, 24 h drug exposure, wash, another 48 hr, 3H-TdR incorporation at 72 hr): 0.1 µM | IC50 ([14]; 24 h, read-out: IC50 CEM/dCK- 24 h, Average, Average ± spread of the repeat determinations, 24 h exposure): > 100 µM | IC50 ([14]; Homo sapiens, CCRF-CEM, read-out: IC50 CEM/dCK- 24 h, 24 h drug exposure, wash, another 48 hr, deoxycytidine kinase-deficient CCRF-CEM): > 100 µM | IC50 ([14]; read-out: IC50 CEM/dCK- 24 h, 24 h drug exposure, wash, another 48 hr, deoxycytidine kinase-deficient CCRF-CEM): 56 µM
SMILES: Nc1ccn([C@@H]2CO[C@H](CO)O2)c(=O)n1 [BCH-4556]
IC50 ([1]; Homo sapiens, NCI-H460, read-out: IC50 H-460 24 h, Average, MTT at 72 hr, Average of the experiments): 1.6 ± 1.6 µM | IC50 ([1]; read-out: IC50 H-460 24 h, MTT at 72 hr, 24 h exposure, single experiment): 0.78 µM | IC50 ([3]; Homo sapiens, SF-268, read-out: IC50 SF-268 24 h, Average, MTT at 72 hr, Average of the experiments): 29 ± 23 µM | IC50 ([3]; read-out: IC50 SF-268 24 h, MTT at 72 hr, 24 h exposure, single experiment): 16 µM | Resistance Factor*, Average ([5]; CEM/dCK- versus CCRF-CEM, Average of the experiments): 349 ± 283 | IC50 ([5]; read-out: IC50 CEM/dCK- 24 h, Average, MMT or WST-1 at 72 hr, Average of the experiments): > 100 µM | Factor* (Resistance Factor), Average ([14]; Average ± spread of the ratios dCK- on wild-type CCRF-CEM): 1792 ± 1584
